# Columns and labels:
# [1] = system: BV2 cells; test: Microglia (BV2) migration, transwell; assay type: cell-based, mouse; settings: LPS 1 μg/ml, 24 hours, compound 10 μM
# Experimental: To determine the migration level of BV2 cells, 8 μm-sized transwells (35224, SPL) were used. 1×10^5 BV2 cells were seeded into the insertion transwells, and the lower wells were treated with the compound of Example 2 or Apocynin (NOX inhibitor) along with lipopolysaccharide (LPS, 1 μg/ml) as stimulus. After 24 hours of incubation, BV2 cells that migrated to the bottom of the insertion transwells were stained with crystal violet.
# [2] = system: Tg−APP/PS1 animal models; test: Tg-APPswe/PS1dE9 Alzheimer's animal model; assay type: in vivo, mice
# Experimental: The Tg−APP/PS1 animal models were used to determine the effect of compounds of Examples according to The present disclosure on Alzheimer's disease. This animal models show amyloid plaque deposition as early as 6.5 months and severe cognitive impairment at 6 to 8 months. The Tg−APP/PS1 animal models were administered with vehicle or the Example compound (i.e., Example 2 was used) at 30 mg/kg or 10 mg/kg every other day from 6.5 to 8 months. All behavioral testing occurred between 7.5 and 8 months, and brain tissues for biopsy were obtained by perfusion after behavioral testing. To confirm amyloid beta plaques, the brain tissues obtained in the above part (1)_1) were incubated in 1% Thioflavin-S solution for 8 to 20 minutes and washed with ethanol and distilled water. The stained tissues were sectioned and the number of plaques or stained areas were quantified. To confirm the changes in astrocytes and microglia by administration of oxadiazole derivative compounds, immunostaining was performed using GFAP antibody, a marker for astrocytes, and Iba1 antibody, a marker for microglia. The novel object recognition (NOR) and novel location recognition (NLR) tests are behavioral assessments that evaluate memory based on the disparity in search time between a novel object or an object relocated to a new position compared to a familiar object. Each experimental animal was placed in a square box with two identical objects and allowed to familiarize for 10 minutes (familiarization #1). Ten minutes after the first familiarization was completed, the objects used in the first familiarization were returned to their original position and subjected to a second familiarization (familiarization #2). After 2 hours, only one of the objects used in familiarization was replaced with a novel object and placed in the same position and the exploration time of the familiar and novel objects (2 h NOR) was determined. After 15 minutes, the familiar object was repositioned, and the exploration time of both objects was checked (NLR). After 22 hours (24 hours after familiarization), the novel object and the familiar object were placed and the exploration time was determined (24 h NOR). water maze test is frequently used to assess memory functions such as memory formation, consolidation, and retrieval effects by assessing the time it takes for an experimental animal to find a platform beneath the water surface, relying on environmental cues. Therefore, the treatment effect on Alzheimer's disease was confirmed using the model used in the water maze test above. The passive avoidance test is a fear-motivated test mainly used to evaluate short-term or long-term memory in experimental animals. The passive avoidance test evaluates fear memory by utilizing the innate tendency of experimental animals to prefer dark areas and avoid bright areas, delivering an electric shock to the paw upon entry into a dark area, and measuring the time it takes for the animal to re-enter the dark area upon re-exposure to the same environment.
# [3] = system: rodent brain tumor glioblast cell line 7080; test: Glioblastoma cell growth inhibition, cell line 7080; assay type: cell-based; settings: all concentrations (0.5 μm, 1 μM, and 2 μM)
# Experimental: (§1) Cell growth experiments were performed to determine the effect of the compounds according to The present disclosure on the growth of brain tumor glioblast cells. Specifically, the rodent brain tumor glioblast cell line 7080 and the human glioblast cell line U87 were treated with the compound of Example 2 according to The present disclosure to determine the cell growth inhibitory effects, and the results are shown in FIG. 18.
# [4] = system: human glioblast cell line U87; test: Glioblastoma cell growth inhibition, U87; assay type: cell-based; settings: 2 μM, starting 4 days after treatment
# Experimental: as §1
# [5] = parietal cortex, piriform cortex, and hippocampus
smiles,measurement,setting,value
"O=C(Nc1nnc(-c2ccccc2)o1)c1ccc(F)c(C(F)(F)F)c1 [Example 2, 4-fluoro-N-(5-phenyl-1,3,4-oxadiazol-2-yl)-3-(trifluoromethyl)benzamide]",LPS-induced increase in number of migrated BV2 cells,[1],offset
same,exploration time for novel objects than familiar objects (2 h NOR),[2]; 30 mg/kg,significantly increase
same,exploration time for novel objects than familiar objects (24 h NOR),[2]; 30 mg/kg,remarkable increase
same,exploration time for objects located in a novel location (NLR),[2]; 30 mg/kg,significant increase
same,amyloid plaque deposition (Thioflavin-S staining),[2]; 30 mg/kg or 10 mg/kg every other day from 6.5 to 8 months,highly significant ameliorative effect
same,"water maze test, time required to locate platform",[2]; five consecutive days of training,memory acquisition ability equivalent to wild-type mice
same,activation of astrocytes (GFAP immunostaining),[2]; [5],effectively reduced
same,activation of microglia (Iba1 immunostaining),[2]; [5],effectively reduced
same,"passive avoidance test, time to enter the dark area","[2]; post-shock, 24 to 120 hours",fear memory retention comparable to that of wild-type animals
same,glioma cell growth of glioblast cell line 7080,[3],strongly inhibited
same,cell growth of human glioblast cell line U87,[4],cell growth inhibition was observed
